This is an account of results in ChEMBL document CHEMBL4368856, “Probing the hras-1Y i-motif with small molecules” (Medchemcomm, 2018).

Series [1] can be described thus: Binding affinity to 5'-biotin-labelled HRAS-1 Y i-motif DNA (unknown origin) by surface plasmon resonance analysis.
Series [2] is described as follows: Binding affinity to 5'-AlexaFluor 647-labelled HRAS-1 Y i-motif DNA (unknown origin) by fluorescence titration method.
Series [3] can be described thus: Binding affinity to 5'-AlexaFluor 647-labelled HRAS-1 Y i-motif DNA (unknown origin) after 1 hr by fluorescence assay.
Series [4] in a line: Binding affinity to HRAS-1 Y i-motif DNA (unknown origin) in pH 6 D2O/DMSO at 100 uM by 1H-WaterLOGSY NMR analysis.
The nature of series [5]: Binding affinity to HRAS-1 Y i-motif DNA (unknown origin) in pH 8 D2O/DMSO at 100 uM by 1H-WaterLOGSY NMR analysis.
The nature of series [6]: Binding affinity to HRAS-1 Y i-motif DNA (unknown origin) in pH 6 D2O/DMSO assessed as chemical shift perturbation in i-motif imino proton at 15 to 16 ppm up to 150 uM by NMR analysis.
Series [7] can be described thus: Binding affinity to HRAS-1 Y i-motif DNA (unknown origin) in pH 6 D2O/DMSO assessed as chemical shift perturbation in Watson-Crick imino proton at 12.5 to 14 ppm up to 150 uM by NMR analysis.
A short description of series [8]: Binding affinity to HRAS-1 Y i-motif DNA (unknown origin) in pH 6 D2O/DMSO assessed as chemical shift perturbation at 7 to 12 ppm up to 150 uM by NMR analysis.
Series [9] can be described thus: Binding affinity to HRAS-1 Y i-motif DNA (unknown origin) in pH 6 tris-acetate buffer assessed as confirmational change at 10 to 50 uM by circular dichroism analysis. A general note: Circular dichroism is widely used to follow secondary structure.
Series [10] in a line: Binding affinity to HRAS-1 Y i-motif DNA (unknown origin) assessed as change in melting temperature by thermal denaturation study.
The nature of series [11]: Aggregation property of the compound in D2O/DMSO at 100 uM by 1H-WaterLOGSY NMR analysis. The class given is physicochemical.
A short description of series [12]: Binding affinity to HRAS-1 Y i-motif DNA (unknown origin) in D2O/DMSO at 100 uM by 1H-WaterLOGSY NMR analysis.
Series [13] in a line: Binding affinity to 5'-ATTO/3'-TAMRA labelled HRAS-1 Y i-motif DNA (unknown origin) up to 252 uM after 10 mins by FRET assay.

The source made the active and inactive calls. The calls are words filed in the database; no cut-off is given here.

The Kd is a measure of binding affinity in units of concentration. Low values mean a tighter complex, high ones a looser complex.

Consider `CC(c1ccc(-c2cc(N3CCOCC3)nc(N)n2)cc1)C(C)N1CCCC1` (stereo not given), for which the Kd in series [1] came to 149 µM; in series [2] it was 90.7 µM.

With `COc1ccc(CCN(C)C2CCCN(c3cc(C)nc(N)n3)C2)cc1OC` (stereo not given), the figures for the Kd in series [1] and in series [2] were 11.6 µM and 16 µM, respectively.

For `COc1ccc(CCN(C)C2CCCN(c3ccnc(N)n3)C2)cc1OC` (stereo not given), the result in series [3], in [4], in [7] and in series [8] was Active. Further, the Kd in [1] stood at 5.9 µM; in [2], 35.6 µM. In addition, the result in series [5], in series [6], in series [9] and in series [10] was inactive.

Regarding `COc1cc(-c2ccc(C(C)N3CCCC3)cc2)nc(N)n1` (stereo not given), the Kd is > 300 µM in series [1] and > 209 µM in series [2].

Take `COc1ccc(CCCNc2nc(N)nc3c2CCNCC3)cc1OC`: the Kd came to 78 µM in series [1] and 30.8 µM in [2].

As to `Nc1nccc(N2CCCC(CCc3ccccc3)C2)n1` (stereo not given), the Kd in series [1] is > 300 µM; in series [2], > 209 µM.

With `CC(c1ccc(-c2cc(NCCO)nc(N)n2)cc1)N1CCCC1` (stereo not given), the outcome in [3], in series [12], in series [4], in series [6] and in [9] was Active. The Kd turned out to be 7.4 µM in [1] and 1.6 µM in series [2]. Also, in series [11], the Activity result is reported as “Not Active”. Also, the result in series [5], in series [7], in series [8], in series [10] and in series [13] was inactive.

Consider `COc1ccc(CCN(C)C2CCCN(c3ccnc(N(C)C)n3)C2)cc1OC` (stereo not given), for which the dissociation constant Kd was > 300 µM in series [1] and 50.4 µM in series [2].

Consider `NCCn1cc(C(=O)NC2CCCN(Cc3cccc(O)c3)C2)nn1` (stereo not given), for which the values for the Kd in series [1] and in series [2] were 243 µM and > 209 µM, respectively.

As to `COc1cc(N2CCCC(N(C)CCc3ccc(OC)c(OC)c3)C2)ncn1` (stereo not given), the Kd stood at 0.2 µM in series [1] and 0.6 µM in [2].

On to `COc1cc(-c2ccc(C(C)N3CCCCC3)cc2)nc(N)n1` (stereo not given), for which the Kd in series [1] stood at 51 µM; in series [2], 254 µM.

`CC(c1ccc(-c2cc(N3CCCC3)nc(N)n2)cc1)N(C)C` (stereo not given): the Kd in series [1] is > 300 µM; in series [2] it was 106 µM.

Consider `COc1ccc(CCN(C)C2CCCN(c3ccnc(C)n3)C2)cc1OC` (stereo not given), for which the Kd in series [1] was found to be 0.3 µM; in [2], 3 µM.
